The target of one data set is enolase. The settings on record: cited from earlier work.
The conditions of data set [1]: Table 5, cited from earlier work.
Another data set concerns D423-MG ENO1-null cells. Description: Soft agar colony formation assay. The data set is classed as cell-based, human. The settings on record: vs shNT. As to the method:
Anchorage-independent growth assays were performed in duplicate or triplicate in 6 well plates. 10^4 of indicated cells per well were seeded in DMEM+10% FBS containing 0.4% low-melting agarose on the top of bottom agar containing 1% low-melting agarose DMEM+10% FBS. After 14-21 days, colonies were stained with iodonitrotetrazoliumchloride (Sigma-Aldrich) and counted.
Cell growth of shRNA- or PhAH-treated cell lines was assayed either through crystal violet staining or using the Promega CellTiter-Glo proliferation kit (Roche) or alternatively, in vivo, by measuring confluence with the IncuCyte (Essen BioScience). Growth curves using the IncuCyte were generated by imaging every 2 hours with quadruplicate replicates. For crystal violet assays, 10^4 cells were seeded in a 6-well plate for each time point. […] Dye extraction was performed using 10% acetic acid solution, and absorbance was read at 590 nm. CellTiter-Glo experiments were performed according to the manufacturer's instructions; 10^3 cells/well were plated in a 96-well plate for each time point, and luminescence readings were taken every 24 h. […] Soft agar (anchorage-independent) growth was monitored in 6-well plates seeded with 10^4 cells of the indicated genotype. […] Growth was monitored by fluorescence (GFP) and after 28 days colonies were stained with iodonitrotetrazolium chloride (Sigma-Aldrich) and counted.

Another data set relates to enolase 2 protein. In words: shRNA knockdown of ENO2 expression (western blot). The settings on record: pGIPZ vector; D423-MG and D502-MG; vs shNT. It is filed as cell-based, human. The text has this:
Two of these hairpins were in the pLKO.1 vector (ShENO2-1 and shENO2-2) and the remaining two were in the Expression Arrest GIPZ (shENO2-3) and TRIPZ (shENO2-4) shRNAmir vectors (Open Biosystems, Huntsville, Ala.). The hairpin in the GIPZ vector was cloned into the TRIPZ vector using a protocol provided by the manufacturer. The TRIPZ vector is a doxycycline inducible system with a Red fluorescent protein reporter which is only expressed upon doxycycline induction. Recombinant lentivirus was produced by transient transfection of 293T cells following a standard protocol. Briefly, 72 μg of the shRNA plasmid, 54 μg of Delta 8.9 and 18 μg of VSVG plasmids were transfected using Fugene® (Roche, Indianapolis, Ind.) into 293T cells plated in 245 mm2 dishes. Viral supernatant was collected 72 hours after transfection, concentrated by centrifugation at 23,000 rpm and resuspended in cell growth medium. For transduction, viral solutions were added to cell culture medium containing 4 μg/mL polybrene; 48 hours after infection cells were selected using 2 μg/mL puromycin and tested for ENO2 knockdown by western blot.
The hairpin in the GIPZ vector was cloned into the TRIPZ vector using a protocol provided by the manufacturer. The TRIPZ vector is a doxycycline-inducible system with a red fluorescent protein reporter that is expressed only upon doxycycline induction. […]

Data set [2] relates to ENO1-null cells (D423-MG, Gli56). In words: Cell growth / toxicity in ENO1-null GBM cells. It is filed as cell-based, human. To be noted: for growth of ENO1-null cells: doxycycline-inducible TRIPZ, D423-MG. As to the method:
(§1) For crystal violet assays, 10,000 cells were seeded in a 6-well plate for each time point. At the indicated time point, cells were fixed with 10% formalin and stained with crystal violet solution for 1 hour. Dye extraction was performed using 10% acetic acid solution and absorbance was read at 590 nm. Cell titer Glo® experiments were performed as indicated by the manufacturer. 1000 cells/well were plated in a 96 well plate for each time point and luminescence readings were taken every 24 hours. All experiments were performed in triplicate.
(§2) Structure and purity were verified by NMR. […] Given the instability of the compound, media was replaced every 5 days and fresh inhibitor added with fresh media.
Cell growth of shRNA- or PhAH-treated cell lines was assayed either through crystal violet staining or using the Promega CellTiter-Glo proliferation kit (Roche) or alternatively, in vivo, by measuring confluence with the IncuCyte (Essen BioScience). Growth curves using the IncuCyte were generated by imaging every 2 hours with quadruplicate replicates. For crystal violet assays, 10^4 cells were seeded in a 6-well plate for each time point. At the indicated time point, cells were fixed with 10% formalin and stained with crystal violet solution for 1 h. Dye extraction was performed using 10% acetic acid solution, and absorbance was read at 590 nm. CellTiter-Glo experiments were performed according to the manufacturer's instructions; 10^3 cells/well were plated in a 96-well plate for each time point, and luminescence readings were taken every 24 h. All experiments were performed in triplicate. Soft agar (anchorage-independent) growth was monitored in 6-well plates seeded with 10^4 cells of the indicated genotype. The medium contained DMEM with 10% FBS; the top agar contained 0.4% low melting agarose, while the bottom agar contained 1% low melting agarose. Growth was monitored by fluorescence (GFP) and after 28 days colonies were stained with iodonitrotetrazolium chloride (Sigma-Aldrich) and counted.
Structure and purity were verified by NMR. […]

In another data set the test system is D423-MG cells. In words: Orthotopic brain tumor formation. The data set is classed as in vivo, SCID mice. To be noted: D423-MG injected intracranially; vs shNT. How it is done: Injection of D423-MG cells was performed as previously described (in Zheng et al., 2008) SCID mice (Charles River) aged 6-12 weeks were placed into stereotactic apparatus equipped with a Z axis (Stoelting). A hole was bored in the skull 0.5 mm anterior and 3.0 mm lateral to the bregma using a dental drill. One hundread thousand cells in Hanks Buffered Salt Solution were injected into the right caudate nucleus 3 mm below the surface of the brain using a 10-μl Hamilton syringe with an unbeveled 30 gauge needle. The scalp was closed using a 9-mm Autoclip Applier. Animals were followed daily for the development of neurological deficits.
The in vivo tumorigenic potential of D423-MG cells transduced with non-targeting hairpin or shENO2-3 delivered through pGIPZ was determined as previously described (Zheng et al., 2008). SCID mice (Charles River) under deep anesthesia were placed into a stereotactic apparatus equipped with a z axis (Stoelting). Then, 3×10^5 cells were injected intracranially into the right caudate nucleus 3 mm below the surface of the brain, using a 10-μl Hamilton syringe. The animals were followed daily for development of neurological deficits. All mice experiments were performed with the approval of the Harvard Cancer Center and Dana-Farber Cancer Institute Institutional Animal Care and Use Committee.

For a further data set, the system named is HMEL cells. Description: Borrelidin growth, HMEL (TARS WT). It is filed as cell-based, human. An excerpt: (§3) The effect of various concentrations of Borrelidin on the growth of the four melanoma cells lines over time was also studied (FIG. 21).
The subject of data set [3] is SK-MEL-2 cells. To be noted: NCI-60 database; cited from earlier work.
For another data set, the system named is SK-MEL-5 cells. In words: Borrelidin growth, SK-MEL-5 (TARS WT). It is filed as cell-based, human.
From the text: as §3

The subject of the next data set is 451 Lu cells. Description: Borrelidin growth, 451 Lu (TARS deficient). It is filed as cell-based, human.
From the text: as §3

Data set [4] deals with SK-MEL-2 cells. In words: Borrelidin growth and cytotoxicity, SK-MEL-2 (TARS Het). The data set is classed as cell-based, human. As to the method:
as §3
To this end, the inventors ran the same live growth assay, except starting with a high confluence of SK-MEL-2 cells at time zero. Under these conditions it became apparent that concentrations of Borrelidin at or above 15 nM are cytotoxic to SK-MEL-2 cells, while lower concentrations are growth inhibitory (FIG. 22).

For another data set, the system named is ENO1-null D423-MG cells. Description: Relative growth with receptor tyrosine kinase inhibitors or rapamycin. The data set is classed as cell-based, human. The settings on record: combination of sorafenib, lapatinib and PHA665752.
In another data set the target is yeast enolase (Saccharomyces cerevisiae, UniProt P00924). The settings on record: read-out: inhibitory constant on yeast enolase; Anderson et al., 1984; cited from earlier work.
yeast enolase, sequence (P00924 whole entry): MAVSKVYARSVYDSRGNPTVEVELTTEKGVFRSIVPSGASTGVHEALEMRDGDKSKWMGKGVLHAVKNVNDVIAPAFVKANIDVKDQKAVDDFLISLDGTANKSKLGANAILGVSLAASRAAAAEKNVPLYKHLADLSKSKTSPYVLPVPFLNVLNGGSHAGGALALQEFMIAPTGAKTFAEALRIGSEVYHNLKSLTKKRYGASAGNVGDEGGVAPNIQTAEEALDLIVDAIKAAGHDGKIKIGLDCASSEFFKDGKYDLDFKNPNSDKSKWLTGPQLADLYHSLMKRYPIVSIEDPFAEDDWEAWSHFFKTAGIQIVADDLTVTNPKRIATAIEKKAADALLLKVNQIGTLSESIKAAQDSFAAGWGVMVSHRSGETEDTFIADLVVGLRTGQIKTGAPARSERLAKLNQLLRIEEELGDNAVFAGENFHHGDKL
Data set [5] relates to ENO1 heterozygous cells (D502-MG and U343). Description: Cell growth / toxicity in ENO1 heterozygous GBM cells. It is filed as cell-based, human. How it is done: as §1, §2
(§4) Cell growth of shRNA- or PhAH-treated cell lines was assayed either through crystal violet staining or using the Promega CellTiter-Glo proliferation kit (Roche) or alternatively, in vivo, by measuring confluence with the IncuCyte (Essen BioScience). […] Dye extraction was performed using 10% acetic acid solution, and absorbance was read at 590 nm. CellTiter-Glo experiments were performed according to the manufacturer's instructions; 10^3 cells/well were plated in a 96-well plate for each time point, and luminescence readings were taken every 24 h. […] Soft agar (anchorage-independent) growth was monitored in 6-well plates seeded with 10^4 cells of the indicated genotype. […]

Data set [6] relates to ENO1 WT GBM cells and normal astrocytes. Description: Cell growth / toxicity in ENO1 WT GBM cells and normal astrocytes. The data set is classed as cell-based, human. As to the method: as §1, §2, §4
Where [7] appears, read: Table 5, published enolase inhibitors.
Setting [8] is: Table 4, known enolase inhibitors.
Where [9] appears, read: printed: SK-MEL-2 cell line, which is also wild-type for TARS.

Like-named read-outs stand apart in the source and are kept apart here.

From the text for ENO1-null D423-MG cells: Given the instability of the compound, the medium was replaced every 5 days and fresh inhibitor added with fresh medium.

In general, pKa refers to the negative logarithm of the acid dissociation constant. Regarding 2-fluoro-2-phosphonoacetohydroxamate, the Ki on enolase (setting [7]) was 1400 nM. The pKa in data set [1] was 8.1.
Regarding “5′-CGGCCTTCAACGTGATCAA-3′ (expressed or natural sequence) [shENO2-3]”, the “soft agar colony formation” value with D423-MG ENO1-null cells is on record as “dramatically decreased”. In the data set on enolase 2 protein, the “reduction of expression of ENO2” value is on record as above 70%. Further, the “growth of ENO1-null cells” value in [2] is “dramatically inhibited growth”. The cell proliferation entry in [2] (pGIPZ, only in the context of ENO1 genomic deletion (D423-MG)) is “dramatically slowed”. Besides, the “in vivo tumorigenic properties” value in the data set with D423-MG cells is on record as “dramatically decreased”.
Consider “5′-GGGACTGAGAACAAATCCA-3′ (expressed or natural sequence) [shENO2-4]”, for which the “growth of ENO1-null cells” value in [2] is listed as “dramatically inhibited growth”.
Regarding `NC=C(OP(=O)(O)O)C(=O)O` [3-aminoenolpyruvate-2-phosphate], the Ki on enolase (setting [8]) and on enolase (setting [7]) was 100 nM each time.
As for `O=[N+]([O-])C(CO)CP(=O)(O)O` (centres unmarked) [(3-hydroxy-2-nitropropyl)phosphonate], the Ki at enolase (setting [8]) is 1 nM; on enolase (setting [7]), 6 nM. Also, in data set [1], the pKa is 8.1.
With `O=[N+]([O-])CCP(=O)(O)O` [(nitroethyl)phosphonate], the Ki on enolase (setting [8]) and at enolase (setting [7]) was 1000 nM throughout. Also, in data set [1], the pKa is given as 8.5.
For `C[C@@H]1C[C@H](C)C[C@H](C)[C@@H](O)CC(=O)O[C@H]([C@@H]2CCC[C@H]2C(=O)O)C/C=C/C=C(/C#N)[C@H](O)[C@@H](C)C1` [Borrelidin], in the data set on HMEL cells, the “effect on growth at low concentrations” value is recorded as “minimal to no effect”. For the same compound, in the data set with HMEL cells (62.5 nM), the “sensitivity of growth at the highest tested concentration” value is “resistant”. In the data set on SK-MEL-2 cells [3], the “Sensitivity to borrelidin (IC50) in a panel of cancer cell lines” value is on record as “lowest IC50”. The “effect on growth at low concentrations” value with SK-MEL-5 cells (SK-MEL-5) is “minimal to no effect”. Also, in the data set on SK-MEL-5 cells (setting [9]), the “sensitivity of growth at 62.5 nM” value is given as “partially sensitive” and the “sensitivity of growth at concentrations less than 31.25 nM” value is on record as “largely resistant”. In addition, in the data set on 451 Lu cells, the “concentration that nearly inhibited growth” value is recorded as 62.5 nM and the “sensitivity to Borrelidin treatment” value is listed as “intermediate sensitivity”. Besides, in the data set with SK-MEL-2 cells [4] (SK-MEL-2), the “effect on growth at low concentrations” value is recorded as “stalled the growth” and the “lowest concentration with at least partial sensitivity” value was at least 3.9 nM. For the same compound, the cytotoxic concentration in the data set with SK-MEL-2 cells [4] (SK-MEL-2, high confluence at time zero) is recorded as at least 15 nM. The “concentration that completely inhibited growth” value with SK-MEL-2 cells [4] (SK-MEL-2, low initial cell density) is 31.25 nM.
In the case of `O=CC(OP(=O)(O)O)C(=O)O` [D-tartronate semialdehyde phosphate], the Ki at enolase (setting [8]) and at enolase (setting [7]) was 10000 nM throughout.
Take `F` [Fluoride]: the “Ki (M)” value at enolase (setting [8]) is given as “Varied depending”; at enolase (setting [7]) it was “Varied”.
Regarding `Cc1[nH]c(/C=C2\C(=O)Nc3ccc(S(=O)(=O)Cc4c(Cl)cccc4Cl)cc32)c(C)c1C(=O)N1CCC[C@@H]1CN1CCCC1` [PHA665752], the “sensitivity of ENO1-null D423-MG cells versus ENO1 WT GBM cell lines” value in the data set with ENO1-null D423-MG cells is reported as “no more sensitive”.
Turning to `O=C(CP(=O)(O)O)NO` [PhAH, phosphonoacetohydroxamate], the Ki at yeast enolase is 0.015 nM. Moreover, the pKa in data set [1] (listed as Phosphonoacetohydroxamate) was 10.2. Moreover, the “times lower doses for similar growth inhibition compared with normal human astrocytes” value in data set [5] is “about 8 times”. Moreover, the “concentration above which PhAH has more than minimal effect on growth” value in data set [6] is on record as “higher than 50 μM”.
As to `CS(=O)(=O)CCNCc1ccc(-c2ccc3ncnc(Nc4ccc(OCc5cccc(F)c5)c(Cl)c4)c3c2)o1` [lapatinib], in the data set with ENO1-null D423-MG cells, the “sensitivity of ENO1-null D423-MG cells versus ENO1 WT GBM cell lines” value is recorded as “no more sensitive”.
For the compound `CC[C@H]1/C=C/C=C/C[C@@H](C)[C@H](O)[C@@](C)(O)C(=O)[C@@H](C)[C@H](O)[C@@H](C)C(=O)[C@@H](C)[C@H](O)[C@@H](C)/C=C/C(=O)O[C@@H]2[C@H](C)[C@H](CC1)O[C@]1(CC[C@H](C)[C@H](C[C@@H](C)O)O1)[C@H]2C` [oligomycin], in data set [5] (oligomycin 10 nM), the “effect of oligomycin on its own” value is listed as “minimal effects”.
For the compound d-(phosphonoethyl)nitrolate, the Ki at enolase (setting [8]) and at enolase (setting [7]) was 14 nM each time.

Source of the values: US20140378529A1, “COLLATERAL GENE INACTIVATION BIOMARKERS AND TARGETS FOR CANCER THERAPY” (Board Regents, The University of Texas System, priority 2011, published 2014).
